Reference: EP2565188A1, “Novel photoactivatable paclitaxel derivatives and uses thereof, in particular in cellbiology and cancer treatment” (Max-Planck-Gesellschaft zur Förderung der Wissenschaften …, priority 2011, dated 2013)

Assays:
HeLa cells [1] = assay: Live cell imaging of the microtubule network (Tubulin Tracker / DRAQ5, CLSM); type: cell-based, Human; conditions: for cell morphology / mitosis in microscopy images / microtubule staining by Tubulin Tracker (fluorescence CLSM): 10 µM; for inhibition of PTX bioactivity / binding of PTX to β-tubulin by the cage: concentrations up to 10 µM
Description: (§1) Human cervix carcinoma cells, HeLa cells (#ACC57, DMSZ, Germany), were cultured in DMEM medium (Invitrogen) supplemented with 10% fetal calf serum (FCS, Gibco) in a humidified incubator at 37°C/5%CO2.
In order to visualize the influence of the PTX derivatives in the microtubule network of the cell, a live cell microscopy analysis of HeLa cells after incubation with 10 µM PTX derivatives for 24 hours was performed.
Specifically, microtubules and nuclei of HeLa cells were fluorescently stained with Tubulin Tracker (Invitrogen) and DRAQ5 (biostatus, United Kingdom) respectively, and imaged by a Leica TCS SP5 confocal laser scanning microscopy (CLSM). 30x10^4 HeLa cells were seeded in 8-well chamber slides (Lab-Tek, nunc, Germany) and the culture medium was replaced after ~16 h by compound supplemented medium (250 µL, DMEM, 10% FCS, 1% DMSO) or medium without compound (DMEM, 10% FCS, 1% DMSO) as a specific control. After 24h, cells were carefully washed with Hank's Buffered Saline Solution (HBSS, with Ca^2+ and Mg^2+, Invitrogen) and the buffer was replaced by a staining solution containing 250 nM Tubulin Tracker (Invitrogen) and 5 µM DRAQ5. The cells were stained for 30 min at 37°C/5% CO2 in a humidified incubator. The staining solution was replaced by HBSS and the cells were directly imaged with a 100x plan apochromat (1.4 NA) oil immersion objective on the CLSM system equipped with a CO2 incubator and a temperature control. Tubulin Tracker was excited with an argon laser (488 nm) and the emission was detected by 500-580 nm. DRAQ5 was excited with a HeNe laser (633 nm) and the emission was detected by 650-730 nm. The images have a voxel height and width of 90 nm. Bright field images grabbed with an Olympus IX-70 inverted microscope with a 20x phase contrast objective. Image processing performed with Leica LAS AF lite and ImageJ (Fiji).

[2] = Photocleavage study: irradiation at 360 nm, composition by HPLC; type: physicochemical; conditions: 1 mM, 5% water in acetonitril, share of the labelled species
Description: The photolysis of the compounds 2'-Nvoc-PTX and 2',7-bisNvoc-PTX was followed by UV and HPLC analysis of the correspondent solutions after exposure to light at λmax = 360 nm (2.7 mW/cm^2).
3 ml of a 1 mM solution of caged PTX in acetonitrile containing 5% water was placed into a quartz cuvette and was exposed at 360 nm for different irradiation times. Aliquots of 50 µl were taken after various irradiation times, and each aliquot was splitted in two parts. 20 µl were diluted to 400 µl to obtain 50 µM solution for UV-Vis characterisation. The 30 µl left from each aliquot were injected into the HPLC (20 µl loop, analytical column) in order to estimate the composition of the irradiated mixture.
Photocleavage of compound 2',7-bisNvoc-PTX was expected to yield the mono-substituted species 2'-Nvoc-PTX and 7-Nvoc-PTX as intermediates that can be further photolyzed to afford free PTX. In fact, HPLC analysis (Fig. 1) confirmed the presence of 2'-Nvoc-PTX (retention time, r.t.= 16.7 min) and 7-Nvoc-PTX (r.t. = 18.2 min) together with the starting compound 2',7-bisNvoc-PTX (r.t. = 21.3 min) and the fully deprotected PTX (r.t. = 11.1 min). The ratio of these compounds within the composition of the irradiated mixture changes with the exposure dose. Fig. 2 and Table B below show the compositional evolution of the mixture with increasing irradiation time as obtained by HPLC analysis. […] However, the influence of other structural factors in the photolytic mechanism cannot be ruled out. Compound 7-Nvoc-PTX could also be isolated from the irradiated mixture in milligram scale. Table B. Molar composition of a solution of 2',7-bisNvoc-PTX (1 mM, 5% water in acetonitril) after different irradiation times, as determined by analysis of HPLC graphs (Fig. 2)

HeLa cells [3] = type: cell-based, Human; conditions: for cytotoxicity: concentrations at least up to 10 µM
Description: as §1
In order to evaluate the bioactivity of the caged PCT derivatives, their cytotoxicity was tested in vitro using HeLa cells. Cells were incubated with PTX and caged PTX derivatives at concentrations between 0.01 and 10 µM.
The effect of PTX and derivatives on cell vitality was measured in a combined assay determining cytotoxicity and cell number by propidium iodide (PI) staining. HeLa cells (2x10^4 cells/well) were diluted in cell culture medium (DMEM, 10 % FCS) and seeded in 96 well-plates (black plate, clear bottom, corning, Amsterdam, Netherlands). The culture medium was replaced after ~16h by compound supplemented medium (200 µL, DMEM, 10 % FCS, 1 % DMSO) or medium without compound (DMEM, 10 % FCS, 1 % DMSO) as a specific control. After 48 h, dead cells with permeable cell membranes were stained with PI ([…], 15 min at 37°C, 5% CO2) and the PI fluorescence intensity was measured with a fluorescence plate reader (excitation wavelength 530 nm, emission wavelength 620 nm, Tecan Infinite M1000, Austria). Subsequently, the cells were lysed with 2% Triton X-100 diluted in DMEM (0.3% Triton X-100 per well, 15 min at 37°C, 5% CO2 and the PI fluorescence was measured again. The vitality of the cells was calculated by the ratio of dead cells (DC) before lyses and the total cell number (TCN) after lyses (1-DC/TCN).

[4] = Solubility test of 10 µM solutions in 1:1000 DMSO:PIPES buffer; type: physicochemical
Description: 10 mM solutions of PTX derivatives in DMSO were prepared. All substances were soluble in DMSO at this concentration. 10 µM solutions of were obtained by 1:1000 dilution of the stock solution into 80 mM PIPES buffer pH 6.8, containing 2 mM MgCl2 and 1 mM EGTA. Table A: solubility test of 10 µM solutions of PTX derivatives in 1:1000 DMSO:PIPES buffer

[5] = 360 nm (2.7 mW/cm^2), irradiation time 0 min
[6] = 360 nm, irradiation time 60 min
[7] = 360 nm, irradiation time 270 min
[8] = 360 nm, irradiation time 450 min
[9] = 360 nm, irradiation time 570 min
[10] = 360 nm, irradiation time 735 min
[11] = 360 nm, irradiation time 820 min
[12] = 360 nm, irradiation time 1585 min
[13] = 10 µM in 1:1000 DMSO:PIPES buffer (80 mM, pH 6.8), time 1 hr
[14] = 10 µM in 1:1000 DMSO:PIPES buffer (80 mM, pH 6.8), time 8 hrs
[15] = 10 µM in 1:1000 DMSO:PIPES buffer (80 mM, pH 6.8), time 24 hrs
[16] = 10 µM in 1:1000 DMSO:PIPES buffer (80 mM, pH 6.8), time 30 hrs
[17] = 10 µM in 1:1000 DMSO:PIPES buffer (80 mM, pH 6.8, 2 mM MgCl2, 1 mM EGTA), time 5 min

| SMILES | cell morphology / mitosis in microscopy images (HeLa cells [1]; 24 h) | microtubule staining by Tubulin Tracker (fluorescence CLSM) (HeLa cells [1]; 24 h) | Molar composition of a solution of 2',7-bisNvoc-PTX after irradiation [2, 5] [%] | Molar composition of a solution of 2',7-bisNvoc-PTX after irradiation [2, 6] [%] | Molar composition of a solution of 2',7-bisNvoc-PTX after irradiation [2, 7] [%] | Molar composition of a solution of 2',7-bisNvoc-PTX after irradiation [2, 8] [%] | Molar composition of a solution of 2',7-bisNvoc-PTX after irradiation [2, 9] [%] | Molar composition of a solution of 2',7-bisNvoc-PTX after irradiation [2, 10] [%] | Molar composition of a solution of 2',7-bisNvoc-PTX after irradiation [2, 11] [%] | Molar composition of a solution of 2',7-bisNvoc-PTX after irradiation [2, 12] [%] | solubility test (appearance of solution) [4, 13] | solubility test (appearance of solution) [4, 14] | solubility test (appearance of solution) [4, 15] | solubility test (appearance of solution) [4, 16] | solubility test (appearance of solution) [4, 17] | inhibition of PTX bioactivity / binding of PTX to β-tubulin by the cage (HeLa cells [1]; 24 h) | cytotoxicity (HeLa cells [3]; 48 h) | other results |
| --- | --- | --- | --- | --- | --- | --- | --- | --- | --- | --- | --- | --- | --- | --- | --- | --- | --- | --- |
| CC(=O)O[C@H]1C(=O)[C@@]2(C)[C@H]([C@H](OC(=O)c3ccccc3)[C@]3(O)C[C@H](OC(=O)[C@H](O)[C@@H](NC(=O)c4ccccc4)c4ccccc4)C(C)=C1C3(C)C)[C@]1(OC(C)=O)CO[C@@H]1C[C@@H]2O [PTX, Paclitaxel] | mitosis of HeLa cells was blocked | absence of the mitotic spindle stained with Tubulin Tracker | 0 | 0 | 1.7 | 6.0 | 10.6 | 18.5 | 21.2 | 60.5 | clear solution | clear solution | Suspension | white precipitate | clear solution |  |  | concentration triggering the multiple nuclei pattern (HeLa cells [1]; 24 h, patterns similar between the compounds (Fig. 6)): 0.002 µM; concentration at which cell vitality is significantly reduced (HeLa cells [3]; 48 h): 0.1 µM |
| COc1cc(COC(=O)O[C@H]2C[C@H]3OC[C@@]3(OC(C)=O)[C@H]3[C@H](OC(=O)c4ccccc4)[C@]4(O)C[C@H](OC(=O)[C@H](O)[C@@H](NC(=O)c5ccccc5)c5ccccc5)C(C)=C([C@@H](OC(C)=O)C(=O)[C@]23C)C4(C)C)c([N+](=O)[O-])cc1OC [7-Nvoc-PTX] | formed an adherent monolayer similar to the negative control | microtubules were less stained, tripolar spindles appeared and the cells developed multiple nuclei with different sizes | 0 | 3.2 | 8.6 | 15.3 | 14.9 | 18.4 | 16.4 | 7.8 |  |  |  |  |  | not able to completely inhibit PTX bioactivity | did not show any cytotoxicity | concentrations at which the derivative bound to tubulin (HeLa cells [1]; 24 h): > 1 µM; concentration triggering the multiple nuclei pattern (HeLa cells [1]; 24 h, pattern similar to 2 nM PTX (Fig. 6)): 10 µM; prevention of mitotic blocking relative to 2'-Nvoc-PTX (HeLa cells [1]; at the concentration tested (10 µM)): ~ 200 fold |
| COc1cc(COC(=O)O[C@H]2C[C@H]3OC[C@@]3(OC(C)=O)[C@H]3[C@H](OC(=O)c4ccccc4)[C@]4(O)C[C@H](OC(=O)[C@H](OC(=O)OCc5cc(OC)c(OC)cc5[N+](=O)[O-])[C@@H](NC(=O)c5ccccc5)c5ccccc5)C(C)=C([C@@H](OC(C)=O)C(=O)[C@]23C)C4(C)C)c([N+](=O)[O-])cc1OC [2',7-bisNvoc-PTX] |  | evenly stained by Tubulin Tracker and showed similar patterns than the negative control | 100 | 90.5 | 72.3 | 51.1 | 42.2 | 27.5 | 24.3 | 6.1 | clear solution | clear solution | clear solution | turbid solution | clear solution | effectively inhibited binding of PTX to β-tubulin | did not show any cytotoxicity | vitality of cells after incubation with irradiated solutions (HeLa cells [3]; irradiated solutions of 2',7-bisNvoc-PTX, longer irradiation times): 0.5; cytotoxic effects of irradiated solutions (HeLa cells [3]; irradiated solutions of 2',7-bisNvoc-PTX, shortest irradiation time): Cytotoxic effects were visible already at the shortest irradiation time |
